Experimental findings from PMC9030622, “Investigation of an Allosteric Deoxyhypusine Synthase Inhibitor in P. falciparum” (Molecules, 2022) are described below.

The target of assay [1] is T1, P. falciparum deoxyhypusine synthase (DHS) (Plasmodium falciparum, UniProt Q9GSW0).
T1 construct: recombinant, truncated P. falciparum DHS, N-terminally histidine-tagged
T1 sequence (Q9GSW0 1-496): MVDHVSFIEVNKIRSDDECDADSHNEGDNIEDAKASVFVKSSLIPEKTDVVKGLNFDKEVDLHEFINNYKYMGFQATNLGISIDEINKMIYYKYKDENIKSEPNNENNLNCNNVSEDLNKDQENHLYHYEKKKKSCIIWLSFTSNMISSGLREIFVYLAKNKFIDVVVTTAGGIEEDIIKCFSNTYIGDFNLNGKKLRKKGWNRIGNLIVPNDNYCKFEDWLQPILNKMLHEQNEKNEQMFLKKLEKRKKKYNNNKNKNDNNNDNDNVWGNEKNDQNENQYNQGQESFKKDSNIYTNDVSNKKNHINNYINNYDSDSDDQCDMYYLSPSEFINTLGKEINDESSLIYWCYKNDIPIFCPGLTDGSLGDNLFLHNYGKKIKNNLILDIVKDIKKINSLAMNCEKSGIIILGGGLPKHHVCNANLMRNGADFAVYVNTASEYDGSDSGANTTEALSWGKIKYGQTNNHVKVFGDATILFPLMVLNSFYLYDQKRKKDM
Description: deoxyhypusine formation assay with purified recombinant PfDHS, GC/MS readout; partial (max […]) inhibition. It is filed as biochemical.

Assay [2] deals with T1, P. falciparum deoxyhypusine synthase (DHS). Description: deoxyhypusine formation assay with purified recombinant PfDHS, GC/MS readout. It is filed as biochemical.

The IC50 is the point on the concentration scale where inhibition reaches its midpoint. In the case of `O=C(Nc1cccc2[nH]ccc12)c1cc2ccc(Br)cc2s1` [6-bromo-N-(1H-indol-4yl)-1-benzothiophene-2-carboxamide], the IC50 in assay [1] came out at 340 nM.
`O=C(O)c1cc(O)c2cccc(O)c2n1` [C, 4,8-Dihydroxyquinoline-2-carboxylic acid]: in assay [2], the concentration for half-maximal inhibition (IC50) was found to be 112 nM.
